Data published in PubChem BioAssay AID2060505 (Molecular Pharmacology Branch, DTP, NCI, 2025).
Values joined by “and” are separate entries in the source; they are usually repeats but may differ in a detail not shown here. Identical values can stand only once.

System: 633275-114-R-J1-PDC complex spheroids, viability
Assay: Anticancer human tumor 633275-114-R-J1-PDC patient-derived endometrial adenocarcinoma cell line growth inhibition [GQUAD]
Details: for viability, T/C: stronger effect = lower value
Excerpt: DNA G-quadruplex Stabilizer Agents in Combinations in Complex Spheroids
A high-throughput screen of multi-cell type tumor spheroids was designed to identify active combinations of DNA G-quadruplex stabilizer agents and targeted small molecules. Complex spheroids include a stromal component modeled by human endothelial cells (HUVEC) and fibroblasts modeled by human mesenchymal stem cells (MSCs). The concentration ranges selected for each drug and investigational agent were based upon clinically achievable concentrations if the clinical Cmax of the agent was known.
Compounds. The drugs and investigational agents: pidnarulex (CX-5461; NSC782164), APTO-253 (NSC789042), BRACO-19 (NSC847499), peposertib (NSC802822), ceralasertib (NSC780249), elimusertib (NSC800525), camonsertib (NSC841442), AZD-1390 (NSC803789), olaparib (NSC753686), talazoparib (NSC767125), ART-558 (NSC835418), sotorasib (NSC818433), MRTX-1133 (NSC836407), SN-38 (NSC673596), topotecan (NSC609699), etoposide (NSC141540), doxorubicin (NSC123127), gemcitabine (NSC613327), 5-fluorouracil (NSC19893), paclitaxel (NSC125973), vemurafenib (NSC761431), panobinostat (NSC761190), R-306465 (JNJ-16241199; NSC773264), adavosertib (NSC754352), TP-3654 (NSC805149), carboplatin (NSC241240), KSQ-4279 (NSC840948), and staurosporine (NSC755774) were obtained from the National Cancer Institute (NCI) Developmental Therapeutics Program Chemical Repository (34). The FDA-approved anticancer drug set is available from the NCI Developmental Therapeutics Program. […] The stock solutions were prepared in dimethyl sulfoxide (DMSO, Sigma-Aldrich, St. Louis, MO, cat. D2650) at 800-fold the tested concentration and stored at -70 degrees C prior to their use. All drugs and investigational agents were tested over a range starting from a high concentration at or near the clinical Cmax and decreasing in half-log increments. If the clinical Cmax for an agent had not been determined, the highest concentration tested was 10 microM.
2.3 Cell Culture. All cells were maintained in an incubator at 37 degrees C and 5% CO2 with 95% humidity. The PDC lines were cultured according to standard operating procedures established by the NCI PDMR. All PDCs were thawed and cultured in Matrigel-coated flasks prepared with a working solution of 1X Ham's F-12 nutrient mix, without supplementation (Invitrogen, cat. 11765054), 100 U/mL penicillin-streptomycin (Invitrogen, cat. 15140122), and 2.5% Matrigel (Corning Inc., cat. 354248) for the first three passages. The 857933-349-R-J2-PDC line was cultured in 6C/Colon 1B media, which includes advanced DMEM/F-12 (Thermo Fisher Scientific, cat. 12634028), 10 mM HEPES (Thermo Fisher Scientific, cat. 15630080), 1X GlutaMAX supplement (Thermo Fisher Scientific, cat. 35050061), 0.1 mg/mL primocin (InvivoGen, cat. ant-pm-2), 10% defined fetal bovine serum, heat inactivated (HyClone Laboratories Inc., cat. SH30070.03HI), 50% L-WRN conditioned media (ATCC, cat. CRL-3276), 1.25 mM N-Acetyl-L-cysteine (Sigma-Aldrich, cat. A9165), 10 mM nicotinamide (Sigma-Aldrich, cat. N0636), 1X B-27 supplement (Thermo Fisher Scientific, cat. 17504044), 1X N-2 supplement (Thermo Fisher Scientific, cat. 17502048), 10 microM Y-27632 dihydrochloride (Tocris Bioscience, cat. 1254), and 50 ng/mL human EGF recombinant protein (Thermo Fisher Scientific, cat. PHG0311). The 485176-168-R4-J1-PDC line was cultured in Panc media, which includes all 6C/Colon 1B media components plus 100 ng/mL human FGF-10 (Thermo Fisher Scientific, cat. 100-26), 500 nM SB-431542 (Selleckchem, cat. S1067), and gastrin (Tocris, cat. 3006).
[…]
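Further: spheroids exposed to the agents for seven days.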
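Wherever viability, T/C is given: percent of DMSO vehicle control viability which is 100%.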

In the case of CC1COCCN1c1cc(C2(O)CC3CCC(C2)O3)c2cnn(-c3ccn[nH]3)c2n1 (stereo not drawn), the viability, T/C (compound 0.0316 µM) is reported as 70% and 78% and 77.7%, the viability, T/C (compound 0.1 µM) is reported as 54.3% and 51.8% and 50.7% and the viability, T/C (compound 0.316 µM) is reported as 29% and 32.2% and 29.2%. The viability, T/C (compound 1 µM) was 19.2% and 21% and 21.1%, the viability, T/C (compound 3.16 µM) was 13.5% (2×) and 15.8% and the viability, T/C (compound 10 µM) was 8.78% and 10.1% and 9.68%. The IC50 (curve of compound) was 117 nM and 109 nM and 99.8 nM.

With C=CC(=O)N1CCN(c2nc(=O)n(-c3c(C)ccnc3C(C)C)c3nc(-c4c(O)cccc4F)c(F)cc23)C(C)C1 (stereo not drawn) + Cc1cnc(CNC(=O)c2c(=O)c3ccc(N4CCCN(C)CC4)nc3n3c2sc2ccccc23)cn1 the IC50 (curve of first compound, second compound 0.0316 µM) was > 10000 nM, the IC50 (curve of first compound, second compound 0.1 µM) was > 10000 nM and the IC50 (curve of first compound, second compound 0.316 µM) was < 31.6 nM. The IC50 (curve of first compound, second compound 1 µM) was < 31.6 nM, the IC50 (curve of first compound, second compound 3.16 µM) was < 31.6 nM and the IC50 (curve of first compound, second compound 10 µM) was < 31.6 nM. It also gave a viability, T/C (second compound 0.0316 µM, first compound 0.0316 µM) of 67.1%, a viability, T/C (second compound 0.0316 µM, first compound 0.1 µM) of 62.3% and a viability, T/C (second compound 0.0316 µM, first compound 0.316 µM) of 78.3%. The viability, T/C (second compound 0.0316 µM, first compound 1 µM) was 69%, the viability, T/C (second compound 0.0316 µM, first compound 3.16 µM) was 65.4% and the viability, T/C (second compound 0.0316 µM, first compound 10 µM) was 68.1%. For the same molecule, the viability, T/C (second compound 0.1 µM, first compound 0.0316 µM) was 57.4%, the viability, T/C (second compound 0.1 µM, first compound 0.1 µM) was 57.8% and the viability, T/C (second compound 0.1 µM, first compound 0.316 µM) was 55.4%. For the same molecule, the viability, T/C (second compound 0.1 µM, first compound 1 µM) was 57%, the viability, T/C (second compound 0.1 µM, first compound 3.16 µM) was 59.8% and the viability, T/C (second compound 0.1 µM, first compound 10 µM) was 51.6%. It also gave a viability, T/C (second compound 0.316 µM, first compound 0.0316 µM) of 46.8%, a viability, T/C (second compound 0.316 µM, first compound 0.1 µM) of 44.9% and a viability, T/C (second compound 0.316 µM, first compound 0.316 µM) of 47.6%. For the same molecule, the viability, T/C (second compound 0.316 µM, first compound 1 µM) was 53.5%, the viability, T/C (second compound 0.316 µM, first compound 3.16 µM) was 54.1% and the viability, T/C (second compound 0.316 µM, first compound 10 µM) was 46.8%. It also gave a viability, T/C (second compound 1 µM, first compound 0.0316 µM) of 41.6%, a viability, T/C (second compound 1 µM, first compound 0.1 µM) of 48.2% and a viability, T/C (second compound 1 µM, first compound 0.316 µM) of 45.7%. For the same molecule, the viability, T/C (second compound 1 µM, first compound 1 µM) was 42.9%, the viability, T/C (second compound 1 µM, first compound 3.16 µM) was 47.7% and the viability, T/C (second compound 1 µM, first compound 10 µM) was 41%. It also gave a viability, T/C (second compound 3.16 µM, first compound 0.0316 µM) of 37.3%, a viability, T/C (second compound 3.16 µM, first compound 0.1 µM) of 36.5% and a viability, T/C (second compound 3.16 µM, first compound 0.316 µM) of 39.4%. For the same molecule, the viability, T/C (second compound 3.16 µM, first compound 1 µM) was 42.6%, the viability, T/C (second compound 3.16 µM, first compound 3.16 µM) was 42.4% and the viability, T/C (second compound 3.16 µM, first compound 10 µM) was 37.6%. For the same molecule, the viability, T/C (second compound 10 µM, first compound 0.0316 µM) was 32.3%, the viability, T/C (second compound 10 µM, first compound 0.1 µM) was 34.1% and the viability, T/C (second compound 10 µM, first compound 0.316 µM) was 34%. It also gave a viability, T/C (second compound 10 µM, first compound 1 µM) of 35.9%, a viability, T/C (second compound 10 µM, first compound 3.16 µM) of 39.7% and a viability, T/C (second compound 10 µM, first compound 10 µM) of 30.2%.

For COc1cc(C2c3cc4c(cc3C(OC3OC5COC(C)OC5C(O)C3O)C3COC(=O)C23)OCO4)cc(OC)c1O (stereo not drawn), the viability, T/C (compound 0.0316 µM) was 90.9% and 82.6% and 84.5%, the viability, T/C (compound 0.1 µM) was 71.1% and 64.9% and 66.1% and the viability, T/C (compound 0.316 µM) was 50.1% and 51.4% and 46.9%. The viability, T/C (compound 1 µM) was 44.4% and 42.1% and 49.9%, the viability, T/C (compound 3.16 µM) was 38.2% (2×) and 36.1% and the viability, T/C (compound 10 µM) was 32.7% and 30.8% and 28.3%. For the same molecule, the IC50 (curve of compound) was 442 nM and 384 nM and 466 nM.

Cn1ncnc1[C@H]1c2n[nH]c(=O)c3cc(F)cc(c23)N[C@@H]1c1ccc(F)cc1 was tested, and the viability, T/C (compound 0.000999 µM) was 101% and 100% and 95.7%, the viability, T/C (compound 0.00316 µM) was 97.5% and 87.7% and 88.7% and the viability, T/C (compound 0.00999 µM) was 87.6% and 88.2% and 102%. The viability, T/C (compound 0.0316 µM) was 79% (2×) and 83.2%, the viability, T/C (compound 0.0999 µM) was 69.5% and 71% and 65.5% and the viability, T/C (compound 0.316 µM) was 56.5% and 57.2% and 61.5%. The IC50 (curve of compound) was > 316 nM.
